# Experiments:
# [1] = molecular target: T1, HIV-1 p66-p51 RT (Human immunodeficiency virus type 1 group M subtype B, UniProt P04585); assay: reverse transcriptase activity assay; format: biochemical; details: for inhibition of HIV-1 RT: in words
# T1 construct: the purified HIV-1 p66-p51 RT enzyme
# Procedure: The effects of 624151 on the in vitro activity of purified RT was determined by measurement of incorporation of [^3 H]TTP onto the poly(rA):oligo(dT)(rAdT) or poly(rC):oligo(dG)(rCdG) homopolymer template/primer systems. Samples (5 μL) were blotted onto DE81 paper, washed with 5% dibasic sodium phosphate as previously described (Buckheit et al., Antiviral Res. 21:247, (1993)), and then quantitated on a Packard Matrix 9600 dual beam counter. 3'-Azido-3'-deoxythymidine-5 '-triphosphateand UC38 (NSC 629243) served as positive controls for inhibition of RT. HIV-1 protease activity was quantitated by a reversed phase HPLC assay utilizing the […]Amide substrate (Multiple Peptide Systems, San Diego, Calif.) as previously described in Rice et al. (Proc. Nat'l. Academy of Science USA 9: 9721-9724, (1993)).
# [2] = system: attachment of HIV-1 to fresh human PBLs; assay: virus attachment assay, HIV-1RF to PBLs (p24-based); format: cell-based
# Procedure: Binding of HIV-1RF to PBLs was measured by a p24-based assay (Rice, et al., Proc. Nat'l. Academy of Science USA 90: 9721-9724, (1993)). Briefly, 5×10^5 PBLs were incubated with a concentrated stock of virus for 30 min. at 37° C. in the absence or presence of various concentrations of 624151, the unbound virus was washed away, and the cell-associated virus was solubilized in 1% Triton X-100, 1% BSA and analyzed by the p24 antigen capture assay as previously described. The binding of gp120to CD4 was analyzed using an antigen capture ELISA. All steps of the assay were carried out according to the manufacturer's protocols.
# ^.dagger. Attachment of HIV1 to fresh human PBLs, binding of gp120 to […]
# [3] = molecular target: T2, p7NC protein in intact HIV-1MN virions (HIV-1 M:B_MN, UniProt P05888); assay: p7NC immunoblot of treated intact virions, non-reducing SDS-PAGE; format: biochemical; details: for detectable virion p7NC / cross-linkage of virion NC proteins: HIV-1MN, FIG. 2(A)
# T2 construct: cut from Gag polyprotein Pr55gag (also Gag-Pol Pr160)
# Procedure: Fluorescence measurements of the Trp^37 residue in the C-terminal zinc finger of the recombinant HIV-1 p7NC protein were performed as previously described (Rice et al., Science 270:1194, 1995). The p7NC protein was prepared at 20 μg/ml in 10 mM sodium phosphate buffer (pH 7.0), treated with 25 μM of each compound, then after indicated time intervals the samples were diluted 1/10 in 10 mM sodium phosphate buffer (pH 7.0) and the fluorescence intensity measured. The excitation and emission wavelengths utilized with the Shimadzu RF5000 spectrofluorimeter were 280 nm and 351 nm, respectively. In an alternate assay, the zinc-selective fluorescent probe N-(6-methoxy-8quinolyl-)-p-toluenesulfonamide (TSQ, Molecular Probes, Eugene, Oreg.) originally described by Fredrickson (J. Neurosci. Meth. 20:91, 1987) was utilized to measure zinc released from the p7NC protein in vitro. Briefly, 2 μM recombinant HIV-1 p7NC protein in 10 mM sodium phosphate buffer, pH 7.0, 10% glycerol was treated with 10 μM 624151 ([…] total volume in 96-well plates), and the time-dependent increase in fluorescence was measured on a Labsystems Fluoroskan II (360 nm excitation filter and 460 nm emission filter) over a period of 2 hours. Induction of alterations of p7NC proteins within intact virions involved treatment of HIV-1MN for 1 hour at 37° C. with 25 μM test compound. Samples were centrifuged 1 hour at 4° C. under 18,000×g to pellet the virus from the drug. Virus pellets were resolved by non-reducing SDS-PAGE and analyzed by immunoblot using monospecific rabbit antisera to the purified p7NC protein.
# In order to determine if the 624151 entered intact HIV-1 virions and affected the p7NC protein zinc fingers, purified HIV-1MN was treated with increasing concentrations of the compound and the viral proteins were then separated by non-reducing SDS-PAGE and immunoblotted with monospecific antisera to the p7NC protein (FIG. 2(A)). […] Thus, 624151 effectively entered and inactivated cell-free HIV-1 virions by chemically attacking the p7NC CCHC zinc fingers and promoting cross-linkage among the p7NC proteins.
# [4] = system: U1 cells; assay: U1 cell viability (XTT) and cell number; format: cell-based; details: TNF-α stimulated U1 cells, 48 hours, FIG. 3(A)
# Procedure: U1 cells latently infected with two copies of HIV-1 proviral DNA per cell (Clous et al., J. Immunol. 142: 431-438, (1989)) were treated with 5 ng/ml tumor necrosis factor-α(TNF-α) for 24 hours to stimulate production of HIV-1 virions, after which various concentrations of 624151 were added to the cultures and incubated for an additional 48 hours. Cultures were analyzed for cell viability by the XTT reduction assay and cells were counted and scored for viability by trypan blue exclusion. Cells pellets were lysed (0.5% Triton X-100, 300 mM NaCl, 50 mM Tris-HCl, pH 7.6, 10 μg/ml each of Leupeptin and aprotinin (Boehringer Mannheim), 1.8 mg/ml iodoacetamide (Sigma Chemical Co., St. Louis, Mo.) and 1.0 mg/ml the protease inhibitor Pefabloc SC (Boehringer Mannheim at 4° C. for 15 min. and then quantitated for viral p24 content by ELISA. Cell-free supernatant samples were collected and analyzed for virus content by p24 ELISA, and infectivity in cultures of 174xCEM cells. Briefly, serial 1/2 dilutions of the supernatant were placed with 5×10^3 174xCEM cells and cultured for 7 days, cell supernatants were analyzed for viral p24 content, and the number of infectious units/ml calculated. In addition, cell free supernatants were centrifuged at 17,000×g for 1 hour at 4° C. to collect virion pellets. […]
# [5] = non-reducing SDS-PAGE, in words
structure (smiles),measurement,setting,value
"O=S1(=O)C[C@H](O)[C@H](O)CS1 (relative stereo) [NSC 624151, cis-1,1-dioxo[1,2]dithiane-4,5-diol]",inhibition of HIV-1 RT,[1]; rAdT template/primer,not inhibited
same,IC50,"[1]; rAdT, read-out: RT Activity rAdT ID50",> 100 µM
same,inhibition of HIV-1 RT,[1]; rCdG template/primer,not inhibited
same,Attachment,[2]; Table 6,NI100μμ
same,inhibition of attachment of HIV-1 virions to target cells,[2]; in words,did not inhibit
same,detectable virion p7NC / cross-linkage of virion NC proteins,[3]; [5],enter intact virions and cause disulfide cross-linkage between virion NC proteins
same,detectable virion p7NC / cross-linkage of virion NC proteins,"[3]; non-reducing SDS-PAGE, in words, listed as 624151",decreases in the amounts of detectable virion p7NC
same,interactions with other viral proteins,[3]; [5],no interactions with other proteins was observed
same,virion p7NC profile under reducing conditions,[3]; reducing conditions (not shown),no alterations in the virion p7NC profile were observed
same,cell viability (XTT) or cell number,[4],did not significantly reduce cell viability (XTT) or cell number

# From patent publication US6046228A, “Anti-viral pharmaceutical compositions containing saturated 1,2-dithiaheterocyclic compounds and uses thereof” (priority 1999, dated 2000)
